What was measured:
[1] = biological target: T1, MNV A105V/I109V protease (polyprotein) (Norovirus, UniProt Q80J95, A1099V/I1103V); experiment: In vitro translation, MNV polyprotein processing, A105V/I109V protease; format: biochemical, murine norovirus; details: 80 μM, rabbit reticulocyte lysate
T1 construct: in vitro-transcribed MNV full-length capped RNA containing either the WT or mutant proteases; made in house; host or cells: rabbit reticulocyte lysate (Flexi system, Promega), in vitro translation
Description: FIG 4 Impact of rupintrivir resistance-conferring mutations on MNV polyprotein processing in vitro. In vitro translation reactions were programmed with equal quantities of in vitro-transcribed MNV full-length capped RNA containing either the WT or mutant proteases in the presence and absence of 80 μM rupintrivir. The [^35S]methionine-labeled products were subsequently analyzed by SDS-PAGE and phosphorimaging analysis. The percentage of fully processed NS3, determined on the basis of the expected molecular mass of the proteins, was calculated and expressed relative to the total amount of viral protein produced.
In vitro translation reactions were performed using a Flexi rabbit reticulocyte lysate system (Promega). The reaction mixtures were prepared according to the manufacturer's instructions as described for capped mRNAs and programmed with 1 μg of RNA per 25-μl reaction mixture. The reaction mixtures were incubated at 30°C for 90 min prior to the addition of an equal volume of SDS-PAGE sample buffer. Samples were subsequently resolved on a 12.5% SDS-polyacrylamide gel before exposure to a phosphorimager screen.

[2] = test system: rupintrivir-resistant Norwalk virus replicon; experiment: Susceptibility of rupintrivir-resistant replicon cells, all clones (qRT-PCR); format: cell-based, Human norovirus (HuNoV) GI; details: resistant clones vs DMSO-passaged cells
Description: Given the potent effects of rupintrivir on HGT-NV cells, we sought to determine whether rupintrivir-resistant replicons could be generated. To this end, HGT-NV cells were treated with 5 μM rupintrivir for 12 days in the absence of G418 selection, followed by subsequent passages in the presence of G418 with increasing concentrations of rupintrivir for up to 45 days (Fig. 1D). This approach yielded three lineages of replicon cells which were resistant to 10, 15, and 20 μM rupintrivir. To identify the mutations conferring the resistance to rupintrivir, we isolated cell clones by limiting dilution using replicon cells surviving after 45 days of culture and then evaluated the rupintrivir sensitivity of the replicon cells. […] All clones treated with 10 μM rupintrivir had the I109V single amino acid substitution, while the A105V/I109V double amino acid substitution was observed only in clones treated with 15 and 20 μM rupintrivir. […]
The inhibitory effect of rupintrivir on HuNoV replication was assessed by quantification of the levels of GI NuNoV RNA and β-actin RNA as the reference gene. […] The real-time quantitative reverse transcription-PCR (qRT-PCR) assay was performed by using a One-Step Plus qRT-PCR kit according to the protocol of the manufacturer (Primer Design). […] Relative quantification was performed using the 2^−ΔΔCT threshold cycle (CT) method ([38]). […]

GII protease = experiment: Cell-based FRET assay, GII WT protease; design: species or system norovirus GII.4 (DQ658413); details: compared with GI and GV WT proteases, HEK293T cells
Text: The generation of plasmids expressing norovirus protease from GI.1 (M87661), GII.4 (DQ658413), or GV (DQ285629) norovirus and FRET assay constructs has been described previously ([18]). The plasmids carrying GI, GII, and GV proteases with the A105V, I109V, or A105V/I109V mutation were generated from the wild-type (WT) protease constructs described above by the QuikChange site-directed mutagenesis method. Mutant MNV genomes for reverse genetics were generated by two-step PCR mutagenesis of the WT MNV genome (pT7 MNV 3RZ) construct as described previously ([27]). The primers used for generation of the plasmids are listed in Tables S1 and S2 in the supplemental material.
The YFP/CFP ratio was used to determine FRET efficiency, as described previously ([18], [40]). Briefly, HEK293T cells were plated into black 96-well cell culture microplates (Greiner Bio-One) at a density of 5 × 10^4 cells/well in 100 μl of DMEM containing 10% fetal bovine serum with or without various concentrations of rupintrivir and then incubated for 4 h in a CO2 incubator at 37°C. […] The plates were then analyzed on a SpectraMax i3 instrument in fluorescence mode, with excitation set at 434 nm and the reading emissions set at 477 nm (CFP) and 527 nm (YFP). The background fluorescence from wells transfected with pcDNA3.1 was determined and subtracted. […]

Q: What does the source list for `CCOC(=O)/C=C/[C@H](C[C@@H]1CCNC1=O)NC(=O)[C@@H](CC(=O)[C@@H](NC(=O)c1cc(C)on1)C(C)C)Cc1ccc(F)cc1` [rupintrivir, Rupintrivir]?
A: polyprotein processing (mature NS3) [1]: still able to produce mature NS3; fold reduced sensitivity [2]: 4- to 11 fold; susceptibility of the protease to rupintrivir (GII protease): substantially lower

— PMC5923142, “Selection and Characterization of Rupintrivir-Resistant Norwalk Virus Replicon Cells In Vitro” (Antimicrobial Agents and Chemotherapy, 2018)
